Source: article PMC6332446, “Acylphloroglucinol Derivatives from the South African Helichrysum niveum and Their Biological Activities” (Molecules, 2015)

Assays:
[1] = Ferric-ion reducing antioxidant power (FRAP) assay; details: ascorbic acid equivalents; absorbance 593 nm; ± % STDEV
Method: Ferric-Ion Reducing Antioxidant Power (FRAP) Assay: Working FRAP reagent was prepared in accordance to the method described previously. Absorbance was measured at 593 nm. L-ascorbic acid was used as a standard and the results were expressed as μM ascorbic acid equivalents per milligram dry weight (μM AAE/g DW) of the test samples.

[2] = molecular target: mushroom tyrosinase; assay: Tyrosinase enzyme assay; type: biochemical; details: L-Tyrosine substrate; samples screened at 100.00 μg/mL upper limit
Method: Tyrosinase Enzyme Assay: The tyrosinase inhibitory activity was measured using the spectrophotometric method previously described. Samples were dissolved in DMSO to a stock solution of 1 mg/mL, and further dilutions were then done with 50 mM sodium phosphate buffer (pH 6.5) for all working solutions. […] In the wells of a 96-well plate, 70 µL of each sample working solution was combined with 30 μL of tyrosinase (500 Units/mL in sodium phosphate buffer) in triplicate. After incubation at room temperature for 5 min, 110 μL of substrate (2 mM L-Tyrosine) was added to each well. Final concentrations of the crude extract, isolated compounds, and positive control ranged from 1.0–100 μg/mL. Incubation commenced for 30 min at room temperature and the enzyme activity was determined by measuring the absorbance at 490 nm. The percentage of tyrosinase inhibition was calculated as follows: Tyrosinase inhibition (%) = [(A − B) − (C − D)]/(A − B) × 100 (1) where A is the absorbance of the control with the enzyme, B is the absorbance of the control without the enzyme, C is the absorbance of the test sample with the enzyme and D is the absorbance of the test sample without the enzyme.

[3] = molecular target: Acetylcholinesterase (AChE) (Homo sapiens, UniProt P22303); assay: biochemical; details: 500.00 μg/mL upper concentration limit; read-out: Inhibitory Activities IC50, Acetylcholinesterase (converted)
Method: Acetylcholinesterase Inhibition Assay: Acetylcholinesterase (AChE) inhibitory activity was measured using Ellman’s method as previously described with minor modifications. AChE catalysis the hydrolysis of acetythiocholine iodide (ACTI as substrate) to thiocholine, which can then react with Ellman’s reagent (DTNB) to produce 5-thio-2-nitrobenzoate (yellow color). In the presence of samples (inhibitors), the release of 5-thio-2-nitrobenzoate (yellow color) is reduced and it is monitored by measuring the absorbance at 450 nm.
In a 96-Well plate, the reaction mixture contains 50 µL of samples pre-incubated with 125 µL of 3 mM 5,5ʹ-Dithiobis-(2-nitrobenzoic acid), and 25 µL AChE (2.0 U/mL), in 50 mM tris-HCl buffer (pH 8.0), with 0.1% bovine serum albumin (BSA) for 15 minutes at 25 °C. Subsequently, 25 µL (15 mM) ACTI was added to the incubation mixture and further incubated for 10 min at 25 °C. […] Absorbance was recorded at 450 nm. The percent AChE inhibitory activity is given by: [A0 − (B − C)]/A0 × 100 (3) where A0 = full enzymatic reaction; B = Activity in the presence of sample; and C = Activity without sample.

[4] = Trolox equivalent absorbance capacity (TEAC) assay; details: trolox equivalents; absorbance 734 nm, 25 °C
Method: Trolox Equivalent Absorbance Capacity (TEAC) Assay: The total antioxidant capacity of the test samples in terms of TEAC were measured using a previously described method. Absorbance was read at 734 nm at 25 °C in a plate reader and the results were expressed as μM trolox equivalents per milligram dry weight (μM TE/g DW) of the test samples.

[5] = Copper-initiated prooxidant activity in the ORAC assay; details: Cu2+ 18 μM without H2O2, 37 °C; one unit = 1% reduction of area under fluorescein decay curve
Method: (§1) Automated Oxygen Radicals Absorbance Capacity (ORAC) Assay: ORAC was measured according to the method previously described. The method measures the antioxidant scavenging capacity for (a) peroxyl radicals generated by thermal decomposition of 2,2ʹ-azobis ([…]) dihydrochloride (AAPH; ORACROO assay); (b) hydroxyl radical (ORACOH assay), generated by H2O2-Cu^2+ (H2O2, 0.3%; Cu^2+ [as CuSO4], 18 μM, or (c) Cu^2+ [as CuSO4], 18 μM as a transition metal oxidant at 37 °C. ORAC values were expressed as micromoles of trolox equivalents (TE) per milligram of test sample, except when Cu^2+ (without H2O2) was used as an oxidant in the assay. In the presence of Cu^2+ without H2O2, test samples acted as prooxidants rather than antioxidants in the ORAC assay. The copper-initiated prooxidant activity was calculated using [(AreaBlank − AreaSample)/AreaBlank] × 100 and expressed as prooxidant units; one unit equals the prooxidant activity that reduces the area under the fluorescein decay curve by 1% in the ORAC assay.

[6] = molecular target: T1, elastase from porcine pancrease (Sus scrofa, UniProt P00772); assay: biochemical; details: SANA substrate; samples screened at 100.00 μg/mL upper limit; read-out: Inhibitory Activities IC50, Elastase (converted)
T1 construct: from tissue; host or cells: porcine pancreas
Method: Elastase Inhibition Assay: Inhibition of elastase by the test samples was assayed using N-succyl-(Ala)-3-nitroanilide (SANA) as the substrate, monitoring the release of p-nitroanilide by the method described previously. The inhibitory activity determined the intensity of color released during cleavage of SANA by the action of elastase. Briefly, 1 mM SANA was prepared in 0.1 M Tris-HCl buffer pH 8.0 and 200 μL of this solution was added to the 20 μL of sample solution in a 96-Well plate. The mixtures were vortexed and preincubated for 10 min at 25 °C and then 20 μL of elastase from porcine pancrease (0.03 Units/mL) was added. The mixtures were further incubated for 10 min and the absorbance was measured at 410 nm. Methanol was used as control, while oleanolic acid used as a positive control.

[7] = system: Rat liver microsomes; details: Fe2+-induced, TBARs, samples screened at 50.00 μg/mL, ± STDEV
[8] = ORAC assay, hydroxyl radical absorbance capacity (ORACOH); details: trolox equivalents; H2O2 0.3%, Cu2+ 18 μM, 37 °C; ± % STDEV
Method: as §1

[9] = ORAC assay, peroxyl radical absorbance capacity (ORACROO); details: trolox equivalents; AAPH, 37 °C; ± % STDEV
Method: as §1

Sequence of Acetylcholinesterase (AChE) (P22303 32-614, species assumed): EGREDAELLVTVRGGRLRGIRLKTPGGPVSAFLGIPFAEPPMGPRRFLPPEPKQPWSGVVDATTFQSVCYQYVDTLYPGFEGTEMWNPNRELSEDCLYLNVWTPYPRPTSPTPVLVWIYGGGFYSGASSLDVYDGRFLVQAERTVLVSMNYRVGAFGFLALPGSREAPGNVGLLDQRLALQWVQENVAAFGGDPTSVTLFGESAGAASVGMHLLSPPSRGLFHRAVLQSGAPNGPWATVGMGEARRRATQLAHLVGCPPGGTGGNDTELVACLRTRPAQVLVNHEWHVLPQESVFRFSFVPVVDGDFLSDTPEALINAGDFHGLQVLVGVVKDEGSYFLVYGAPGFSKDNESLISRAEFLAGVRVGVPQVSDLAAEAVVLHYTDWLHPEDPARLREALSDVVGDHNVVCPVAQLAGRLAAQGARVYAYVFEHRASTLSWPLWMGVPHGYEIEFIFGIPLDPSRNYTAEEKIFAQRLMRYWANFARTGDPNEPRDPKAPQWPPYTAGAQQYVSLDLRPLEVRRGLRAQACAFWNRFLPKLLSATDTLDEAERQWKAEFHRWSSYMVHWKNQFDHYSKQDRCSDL
T1 sequence (P00772 27-266): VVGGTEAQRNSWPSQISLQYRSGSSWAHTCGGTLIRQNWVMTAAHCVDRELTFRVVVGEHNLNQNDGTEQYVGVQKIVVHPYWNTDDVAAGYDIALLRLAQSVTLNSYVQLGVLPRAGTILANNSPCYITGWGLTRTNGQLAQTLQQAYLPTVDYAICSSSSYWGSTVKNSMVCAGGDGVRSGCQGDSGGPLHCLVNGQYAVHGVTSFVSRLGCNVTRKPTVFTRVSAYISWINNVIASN

SMILES	FRAP [1] [µMAAE/g]	Inhibitory Activities IC50, Tyrosinase [2] [µg/mL]	IC50 [3] [µM]	TEAC [4] [μM TE/g DW]	Prooxidant (copper-initiated prooxidant activity) [5] [prooxidant units]	IC50 [6] [µM]	Anti-Lipid peroxidation IC50 [7] [µg/mL]	Hydroxyl (ORACOH) [8]	Peroxyl (ORAC peroxyl radical absorbance capacity) [9] [µM TE/g]
CC(=O)OC/C(C)=C/Cc1c(O)cc(O)c(C(=O)c2ccccc2)c1O [Compound 1, 1-benzoyl-3(3-methylbut-2-enylacetate)-phloroglucinol]	2530.54 ± 0.92	35.63 ± 4.67	752	19545.00 ± 10.25	8.92 ± 1.15	> 281	5.12 ± 0.90	64.85 ± 10.95 × 10^6 µMTE/g	
C=C(C)[C@@H](O)Cc1c(O)cc(O)c(C(=O)c2ccccc2)c1O [Compound 2, 1-benzoyl-3(2S-hydroxyl-3-methylbut-3-enyl)-phloroglucinol]	4950.08 ± 0.65	26.72 ± 5.05	852	43615.73 ± 6.66	756.90 ± 1.98	> 318	3.55 ± 1.92	94.97 ± 5.88 × 10^6 µMTE/g	
CC(C)C(=O)c1c(O)cc(O)c2c1OC(C)(C)[C@@H](O)C2 [Compound 3, 8-(2-methyl-1-propanone)-3S,5,7-trihydroxyl-2,2-dimethylchromane]	155.65 ± 12.02	80.31 ± 3.31	974	6001.40 ± 5.63	41.73 ± 8.20	90.3	>50.00	5.99 ± 4.52 × 10^6 µMTE/g	3937.78 ± 25.85
CCC(C)C(=O)c1c(O)cc(OCC=C(C)C)cc1O (centres unmarked) [Compound 4, 1-(2-methylbutanone)-4-O-prenyl-phloroglucinol]	194.27 ± 1.78	>100.00	981	1629.10 ± 2.03	7.02 ± 4.02	164	44.62 ± 2.08	3.92 ± 14.47 × 10^6 µMTE/g	5406.65 ± 1.39
CC(C)=CCOc1cc(O)c(C(=O)C(C)C)c(O)c1 [Compound 5, 1-(2-methylpropanone)-4-O-prennyl-phloroglucinol]	446.64 ± 8.07	>100.00	957	2673.62 ± 1.68	12.33 ± 6.62	263	20.22 ± 2.72	5.60 ± 0.79 × 10^6 µMTE/g	6053.87 ± 18.67
CCCC(=O)c1c(O)cc(O)c(CC=C(C)C)c1O [Compound 6, 1-(butanone)-3-prenyl-phloroglucinol]	1183.52 ± 6.20	>100.00	957	4316.61 ± 1.06	64.37 ± 0.22	134	30.80 ± 2.12	18.07± 3.47 × 10^6 µMTE/g	13544.93 ± 12.13
CCC(C)C(=O)c1c(O)cc(O)c(CC=C(C)C)c1O (centres unmarked) [Compound 7, 1-(2-methylbutanone)-3-prenyl-phloroglucinol]	1029.03 ± 0.66	>100.00	936	9998.71 ± 2.66	73.87 ± 1.10	240	27.49 ± 3.19	23.12 ± 18.94 × 10^6 µMTE/g	14139.74 ± 5.96
CCCC(=O)c1c(O)cc(O)c(C/C=C(\C)COC(C)=O)c1O [Compound 8, 1-butanone-3-(3-methylbut-2-enylacetate)-phloroglucinol]	1203.02 ± 2.07	>100.00	769	6757.40 ± 4.69	76.59 ± 0.27	197	27.56 ± 0.63	16.70 ± 1.25 × 10^6 µMTE/g	14218.17 ± 12.36
CC(C)=CCc1c(O)cc(O)c(C(=O)C(C)C)c1O [Compound 9, 1-(2-methylpropanone)-3-prenylphloroglucinol]	1096.01 ± 1.12	>100.00		4423.32 ± 3.11	69.54 ± 0.29	233	20.95 ± 2.62	24.24 ± 1.71 × 10^6 µMTE/g	13639.27 ± 17.62
CC(=O)OC/C(C)=C/Cc1c(O)cc(O)c(C(=O)C(C)C)c1O [Compound 10, caespitate]	1019.28 ± 1.79	>100.00	777	8705.14 ± 1.83	92.31 ± 1.59	182	20.50 ± 4.01	16.26 ± 15.39 × 10^6 µMTE/g	16735.55 ± 21.72
O=C(O[C@@H]1Cc2c(O)cc(O)cc2O[C@@H]1c1cc(O)c(O)c(O)c1)c1cc(O)c(O)c(O)c1 [EGCG, epigallocatechin gallate, reference compound]	3326.45 ± 5.76			11545.44 ± 17.28	6.48 ± 1.19		1.04 ± 1.02	3.91 ± 4.65 × 10^6 µMTE/g	
